Data on 24 compounds can be found in patent US20090312349A1, “ANTI-INFLAMMATORY MEDICAMENTS” (priority 2004, published 2009).

The target in this assay is T1, phospho p-38 alpha kinase (Homo sapiens, UniProt Q16539).
T1 construct: purchased Panvera
Description: P-38 alpha kinase assay (spectrophotometric, pyruvate kinase/lactate dehydrogenase coupled). Type of assay: biochemical. The conditions noted are these: Table 5; for IC50: assay not named, read-out: uM. The protocol:
In this assay, the oxidation of NADH was continuously measured spectrophometrically. […] The reaction was initiated by adding ATP. The absorption at 340 nm was monitored continuously for up to 4 hours at 30° C. on Polarstar Optima plate reader (BMG). The kinase activity (reaction rate) was calculated from the slope at the time frame from 1.5 h to 2 h.
For inhibition determinations, test compounds were incubated with the reaction mixture for ˜5 min before adding ATP to start the reaction. […] IC50 values were calculated from a series of % inhibition values determined at a range of concentrations of each inhibitor using Prism to process the data and fit inhibition curves. Generally, the rates obtained at the time frame of 1.5 h to 2 h were used for these calculations.

T1 sequence (Q16539 whole entry): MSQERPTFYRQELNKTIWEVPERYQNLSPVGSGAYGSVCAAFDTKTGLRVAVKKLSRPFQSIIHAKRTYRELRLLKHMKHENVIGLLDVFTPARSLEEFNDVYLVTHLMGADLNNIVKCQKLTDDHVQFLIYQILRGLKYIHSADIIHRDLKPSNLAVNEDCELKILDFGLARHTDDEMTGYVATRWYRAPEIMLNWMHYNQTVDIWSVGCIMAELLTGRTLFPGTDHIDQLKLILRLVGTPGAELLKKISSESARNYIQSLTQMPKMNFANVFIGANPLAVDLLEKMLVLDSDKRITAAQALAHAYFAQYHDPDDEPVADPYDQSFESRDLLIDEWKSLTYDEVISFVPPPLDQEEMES

For the compound `CC(C)(C)c1cc(NC(=O)Nc2ccc(Cl)cc2)n(-c2cccc(CNC(=O)N3CCCCC3)c2)n1` [Example 385, 1-(3-t-butyl-1-{3-[(piperidine-1-carboxamido)methyl]phenyl}-1H-pyrazol-5-yl)-3-(4-chlorophenyl)urea], the IC50 came out at 0.03 µM.
Same read-out and setting: with `CC(C)(C)c1cc(NC(=O)Nc2ccc(Cl)cc2)n(-c2cccc(CNC(=O)N3CCOCC3)c2)n1` [Example 386, 1-(3-t-butyl-1-{3-[(morpholine-4-carboxamido)methyl]phenyl}-1H-pyrazol-5-yl)-3-(4-chlorophenyl)urea] the figure was 0.114 µM; with `CC(C)(C)c1cc(NC(=O)Nc2ccc(Cl)cc2)n(-c2cccc(CNC(=O)N3CCCC3)c2)n1` [Example 387, 1-(3-r-butyl-1-{3-[(pyrrolidine-1-carboxamido)methyl]phenyl}-1H-pyrazol-5-yl)-3-(4-chlorophenyl)urea], 4.45 µM.
For the compound `CN(C)C(=O)NCc1cccc(-n2nc(C(C)(C)C)cc2NC(=O)Nc2ccc(Cl)cc2)c1` [Example 388, 1-{3-t-butyl-1-[3-(3,3-dimethylureidomethyl)phenyl]-1H-pyrazol-5-yl}-3-(4-chlorophenyl)urea], the IC50 came to 1.65 µM.
The same measure, in the same setting: as for `CN1CCN(C(=O)NCc2cccc(-n3nc(C(C)(C)C)cc3NC(=O)Nc3cccc4ccccc34)c2)CC1` [Example 389, 1-{3-t-butyl-1-(3-[(1-methylpiperazine-4-carboxamido)methyl]phenyl}-1H-pyrazol-5-yl)-3-(naphthalen 1-yl)urea], the figure is 0.09 µM.
For `CN1CCN(C(=O)NCc2cccc(-n3nc(C(C)(C)C)cc3NC(=O)Nc3ccc(Cl)cc3)c2)CC1` [Example 390, 1-{3-t-butyl-1-(3-[(1-methylpiperazine-4-carboxamido)methyl]phenyl}-1H-pyrazol-5-yl)-3-(4-chlorophenyl)urea], the “% @ concentration, uM” value (@ 0.1 uM) is given as 24% and the “% @ concentration, uM” value (@ 1 uM) is 63%.
As to `CC(C)(C)c1cc(NC(=O)Nc2ccc(Cl)cc2)n(-c2cccc(CN3C(=O)C(=O)N(c4ccccc4)C3=O)c2)n1` [Example 391, 1-{3-t-butyl-1-(3-[(2,4,5-trioxo-3-phenylimidazolidin-1-yl)methyl]phenyl)-1H-pyrazol-5-yl}-3-(4-chlorophenyl)urea], the IC50 was 0.91 µM.
`CC(C)(C)c1cc(NC(=O)Nc2ccc(Cl)cc2)n(-c2cccc(Cn3c(=O)[nH]n(-c4ccccc4)c3=O)c2)n1` [Example 392, 1-(3-t-butyl-1-{3-[(3,5-dioxo-1-phenyl-1,2,4-triazolidin-4-yl)methyl]phenyl}-1H-pyrazol-5-yl)-3-(4-chlorophenyl)urea]: the “% @ concentration, uM” value by setting is: (@ 0.1 uM) 75%; (@ 1 uM) 86%.
Take `CCOC(=O)c1cccc(-n2nc(C(C)(C)C)cc2NC(=O)Nc2ccc(F)cc2)c1` [Example 393, ethyl 3-{3-t-butyl-5-[3-(4-fluorophenyl)ureido)-1H-pyrazol-1-yl}benzoate]: the IC50 amounted to 0.4 µM.
On the same count and under the same terms, with `CC(C)(C)c1cc(NC(=O)Nc2ccc(F)cc2)n(-c2cccc(Cn3c(=O)[nH]n(-c4ccccc4)c3=O)c2)n1` [Example 395, 1-{3-t-butyl-1-(3-[(3,5-dioxo-1-phenyl-1,2,4-triazolidin-4-yl)methyl]phenyl}-1H-pyrazol-5-yl)-3-(4-fluorophenyl)urea] the figure was 0.056 µM.
As to `CC(C)(C)c1cc(NC(=O)Nc2cccc(Cl)c2Cl)n(-c2cccc(Cn3c(=O)[nH]n(-c4ccccc4)c3=O)c2)n1` [Example 396, 1-(3-t-butyl-1-{3-[(3,5-dioxo-1-phenyl-1,2,4-triazolidin-4-yl)methyl]phenyl}-1H-pyrazol-5-yl)-3-(2,3-dichlorophenyl)urea], the “% @ concentration, uM” value is 3% (@ 0.1 uM) and 56% (@ 1 uM).
For `CCOC(=O)Cc1cccc(-n2nc(C(C)(C)C)cc2NC(=O)Nc2ccccc2)c1` [Example 397, ethyl 2-{3-[3-t-butyl-5-(3-phenylureido)-1H-pyrazol-1-yl]phenyl}acetate], the IC50 came out at 0.04 µM.
Take `CC(C)(C)c1cc(NC(=O)Nc2ccc(Cl)cc2)n(-c2cccc(CC(=O)O)c2)n1` [Example 399, 2-(3-{3-t-butyl-5-[3-(4-chlorophenyl)ureido]-1H-pyrazol-1-yl-}phenyl)acetic acid]: the “% @ concentration, uM” value is 21% (@ 0.1 uM) and 74% (@ 1 uM).
Take `CC(C)(C)c1cc(NC(=O)Nc2cccc3ccccc23)n(-c2ccc3c(c2)CNCC3)n1` [Example 406, 1-[3-t-butyl-1-(1,2,3,4-tetrahydroisoquinolin-7-yl)-1H-pyrazol-5-yl]-3-(naphthalen-1-yl)urea]: the IC50 came out at 0.0134 µM.
For `CC(C)(C)c1cc(NC(=O)Nc2ccc(Cl)cc2)n(-c2ccc3c(c2)CNCC3)n1` [Example 407, 1-[3-t-butyl-1-(1,2,3,4-tetrahydroisoquinolin-7-yl)-1H-pyrazol-5-yl]-3-(4-chlorophenyl)urea], the IC50 came to 0.0103 µM.
As to `Cn1[nH]c(=O)n(Cc2cccc(-n3nc(C(C)(C)C)cc3NC(=O)Nc3cccc(Cl)c3Cl)c2)c1=O` [Example 408, 1-{5-t-butyl-2-[3-(1-methyl-3,5-dioxo-[1,2,4)triazolidin-4-ylmethyl)-phenyl]-2H-pyrazol-3-yl}-3-(2,3-dichloro-phenyl)-urea], the IC50 was 0.116 µM.
With `CC(C)c1cc(NC(=O)Nc2cccc3ccccc23)n(-c2ccc(C(O)C(F)(F)F)cc2)n1` (stereo not drawn) [Example 411, 1-(1-(4-(2,2,2-trifluoro-1-hydroxyethyl)phenyl)-3-isopropyl-1H-pyrazol-5-yl)-3-(naphthalen-1-yl)urea], the IC50 worked out at 0.008 µM.
Consider `CC(C)(C)c1cc(NC(=O)Nc2cccc3ccccc23)n(-c2ccc(O)cc2)n1` [Example 415, 1-(3-t-butyl-1-(4-hydroxyphenyl)-1H-pyrazol-5-yl)-3-(naphthalen-1-yl)urea], for which the “% @ concentration, uM” value runs as follows: (@ 0.1 uM) 28%; (@ 1 uM) 69%.
Take `COC(=O)COc1ccc(-n2nc(C(C)(C)C)cc2NC(=O)Nc2cccc3ccccc23)cc1` [Example 416, 1-(3-t-butyl-1-(4-(carbomethoxymethyl)oxyphenyl)-1H-pyrazol-5-yl)-3-(naphthalen-1-yl)urea]: the “% @ concentration, uM” value is reported as 67% (@ 0.1 uM) and 83% (@ 1 uM).
`CC(C)(C)c1cc(NC(=O)Nc2ccc(Cl)cc2)n(-c2ccc(OCc3ccccc3)cc2)n1` [Example 418, 1-(3-t-butyl-1-(4-(benzyloxy)phenyl)-1H-pyrazol-5-yl)-3-(4-chlorophenyl)urea]: the IC50 was 0.075 µM.
Same read-out and setting: with `CC(C)(C)c1cc(N)n(-c2ccc(O)cc2)n1` [Example 420, 4-(3-t-butyl-5-amino-1H-pyrazol-1-yl)phenol] the figure was 0.0147 µM.
On the same count and under the same terms, with `CC(C)(C)c1cc(NC(=O)Nc2ccc(Cl)cc2)n(-c2ccc(O)cc2)n1` [Example 421, 1-(3-t-butyl-1-(4 hydroxyphenyl)-1H-pyrazol-5-yl)-3-(4-chlorophenyl)urea] the figure was 0.0147 µM; with `CCOC(=O)CCc1cccc(-n2nc(C(F)(F)F)cc2NC(=O)Nc2ccc(Cl)cc2)c1` [Example 426, 3-{3-(5-[3-(4-chloro-phenyl)-ureido]-3-trifluoromethyl-pyrazol-1-yl}-phenyl)-propionic acid ethyl ester], 0.013 µM.
In the case of `O=C(O)CCc1cccc(-n2nc(C(F)(F)F)cc2NC(=O)Nc2ccc(Cl)cc2)c1` [Example 427, 3-(3-(5-(3-(4 chlorophenyl)ureido)-3-(trifluoromethyl)-1H-pyrazol-1-yl)phenyl)propanoic acid], the IC50 amounted to 0.819 µM.
